Here are results for 3 compounds from PMC12249915, “Development of a Cyclodextrin-Based Drug Delivery System to Improve the Physicochemical Properties of Ceftobiprole as a Model Antibiotic” (International Journal of Molecular Sciences, 2025).

≈ marks a conversion by molar mass, not a printed value. Where “and” joins values, the source holds several entries; their conditions need not be identical. Equal values may be shown once. Read-outs that look alike come from different tables or passages of the source.

For data set [1] the following is noted: cited from earlier work.
Details of data set [2]: method as in PMID 38068968. Particulars: theoretical calculations, depending on the software used; cited from earlier work.
Data set [3] is described as follows: DOSY NMR study of complex formation with SBE-β-CD. It counts as physicochemical. The following applies: for diffusion coefficient D: DOSY, D2O, 25 °C, ceftobiprole/maleic acid 1:25 without SBE-β-CD at 7.5 mM ceftobiprole. The source says:
Another approach to investigate the complex formation using NMR is the use of Diffusion-Ordered SpectroscopY (DOSY). Based on chemical shifts, each individual signal can be assigned to a proper species present in the analysed sample solution, thus allowing us to determine its diffusion coefficient D . The value of D depends on the hydrodynamic radius r of the analysed species, temperature T , and on the dynamic viscosity η of the solution:(1) D=kBT/6π η r
Here, kB stands for the Boltzmann constant. The solutions used for the DOSY measurements should be appropriately diluted to avoid the viscosity-related issues. Moreover, to properly compare the DOSY spectra between the samples with and without SBE-β-CD, it must be checked whether the viscosities of these two samples are similar.
It is a generally accepted practice to approximate that D is the same for the CD in a complex and for free CD. Assuming a quick exchange regime, to calculate the molar fraction MFCB of ceftobiprole molecules being complexed in relation to all ceftobiprole molecules in the studied solution, one can take advantage of the equation stating that DCB−CD is the weighted average of DCB and DCD :(2) DCB−CD=MFCBDCB+(1−MFCB)DCD
The complexation equilibrium is dynamic, and can be interpreted as a statistical ceftobiprole molecule spending MFCB proportion of time in a complex, and (1−MFCB) fraction of time alone, resulting in overall DCB−CD being the weighted average.
In these studies, 16 increments consisting of 64 scans were performed. A relaxation time of 2 s, a diffusion time of 200 ms, a total diffusion encoding gradient duration of 2 ms, and 16 values of the diffusion encoding gradient incremented from 3 to 25 G/cm were applied. Processing was carried out using the OpenVnmrJ 3.1A software with the option of correction for spatially non-uniform pulsed field gradients.

Data set [4] in a line: Solubility of ceftobiprole determined by HPLC. The data set is classed as physicochemical. Here is the method: The samples were stored in a freezer, taking into account the recommended storage conditions for ceftobiprole. The stability of the prepared samples was tested at defined intervals using the same methodology. To evaluate potential changes in solubility due to physical transformations such as phase transitions or recrystallization, an identical volume of water was added as in the initial solubility test. Subsequently, the reconstituted samples were analysed by HPLC to determine the precise solubility and to monitor any increase in the concentration of DPs content, thereby assessing both physical and chemical stability.
The LC-MS/MS experiments were performed using the same equipment and methodology as described in [14], with one modification: to acquire a full mass spectrum of SBE-β-CD, the range of detected m/z was broadened to 2500.

The nature of data set [5]: pH of solutions before freeze-drying and after reconstitution. The data set is classed as physicochemical.

The solubility is the concentration that dissolves in the medium under given conditions.

In the case of `Nc1nc(/C(=N/O)C(=O)N[C@@H]2C(=O)N3C(C(=O)O)=C(/C=C4\CCN([C@@H]5CCNC5)C4=O)CS[C@H]23)ns1` [ceftobiprole], the results for the t90 entry in data set [1] (0.01 M NaOH), in data set [1] (3% H2O2) and in data set [1] (UV irradiation at 366 nm) were “≈ 10 min”, “≈ 25 min” and “≈ 1 h”, respectively. Further, the “t90 (time for 10% decrease in initial concentration)” value in data set [1] (0.1 M HCl at room temperature) is listed as “approximately 22 h”. Further, the “decrease of degradation rate constant in the presence of 10 mM SBE-β-CD” value in data set [1] (acidic degradation in 0.1 M HCl at 25 °C) and in data set [1] (thermal degradation in water at 45 °C) was 2.5 fold in each case. Also, the “pKa of the carboxyl group of ceftobiprole” value in data set [2] was 3.0 and 3.2. In addition, the “diffusion coefficient D” value in data set [3] was “≈ 3.16 × 10^−10 m^2/s”. In data set [3] (cCB = 1.917 mM, cCD = 7.667 mM), the “molar fraction MFCB of ceftobiprole molecules being complexed” value is “≈ 0.35”. The “molar fraction MFCB” value is 0.845 in data set [3] (calculated for cCB = 22.5 mM, cCD = 90 mM (1:25:4), K = 77 M^−1) and 0.693 in data set [3] (calculated for molar ratio 1:25:2, cCD = 45 mM). The “equilibrium constant K of complex with SBE-β-CD” value in data set [3] (semi-quantitative, from DOSY) is 77 M⁻¹. In addition, the “ceftobiprole molecules in the complex with SBE-β-CD” value in data set [3] (solution near saturation, 1:25:4) was found to be 85%. Further, the solubility in data set [4] (0.1 M aqueous formic acid (HCOOH), solubility of ceftobiprole before use of 0.1 M formic acid and SBE-β-CD) was approximately 100 µg/mL (≈ 187 µM); in data set [4] (water, freeze-dried analogue without SBE-β-CD, reconstituted in water, read-out: Solubility of Ceftobiprole for Freeze-Dried Samples in a Preliminary Study Without SBE-β-CD), 2100 µg/mL (≈ 3930 µM); in data set [4] (water, freeze-dried from water without acid, read-out: solubility after freeze-drying of pure aqueous solutions), 120 µg/mL (≈ 224 µM); in data set [4] (water, without freeze-drying in acidic environment, read-out: water solubility of ceftobiprole) it was 50 µg/mL (≈ 93.5 µM). In data set [4] (freeze-dried (2.1 mg/mL) vs unprocessed in 0.1 M HCOOH ([…])), the “fold higher solubility after freeze-drying in 0.1 M HCOOH” value came to 15 fold. Besides, the “pH of the dissolved sample” value in data set [5] (freeze-dried in 0.1 M HCOOH without SBE-β-CD) is reported as “approximately 5”.
Regarding `O=C(O)CC(O)(CC(=O)O)C(=O)O` [citric acid], the “pH of the solution intended for freeze-drying” value was 2.9 in data set [5] (20-fold molar excess of citric acid in relation to ceftobiprole), 2.7 in data set [5] (50-fold molar excess of citric acid in relation to ceftobiprole) and 2.5 in data set [5] (100-fold molar excess of citric acid in relation to ceftobiprole).
Consider `O=C(O)/C=C\C(=O)O` [maleic acid], for which the “diffusion coefficient D” value in data set [3] is 7.11 × 10^−10 m^2/s.
